Measurements reported in publication PMC9079923, “Trifluoromethylated proline analogues as efficient tools to enhance the hydrophobicity and to promote passive diffusion transport of the L-prolyl-L-leucyl glycinamide (PLG) tripeptide” (RSC Advances, 2018).
Residues, ends and D or L forms follow the SMILES beside them.

Assays:
[1] = Parallel artificial membrane permeability assay (PAMPA), in vitro model of the BBB
Method: (§1) We then decided to evaluate the ability of our fluorinated PLG analogues 2 and 3 to cross the BBB through passive diffusion. […] The rate of permeation can be determined by the effective permeability (Pe) as well as the rate of transport values. The membrane retention value can also be obtained and reflects the strength of the interaction between the lipids that mimic the membrane and the peptide.
(§2) The buffer solution was prepared from a commercially concentrated one, supplied by pION. Following the manufacturer's instructions, system solution was adjusted to pH 7.4 using a 0.5 M NaOH solution. The compounds to be analyzed were dissolved in a mixture of buffer solution with 20% of 1-propanol used as co-solvent to ensure their solubility. The PAMPA sandwich was separated, and the donor wells were filled with 195 μL of each compound. A magnetic stirrer was placed in each well. The acceptor plate was put into the donor plate, ensuring that the underside of the membrane was in contact with the buffer. Then, 4 μL of a mixture of phospholipids from a porcine polar brain extract (20 mg mL^−1) in dodecane (composition: 12.6% phosphatidylcholine (PC), 33.1% phosphatidylethanolamine (PE), 18.5% phosphatidylserine (PS), 4.1% phosphatidylinositol (PI), 0.8% phosphatidic acid and 30.9% of other compounds) was added to the filter of each well, followed by 200 μL of buffer solution. The plate was then covered and incubated at room temperature in a saturated humidity atmosphere for 4 h under orbital agitation at 25 μm of unstirred water layer (UWL). After this period, the solution from the donor and acceptor plates was transferred to the UPLC vials. 100 μL of each acceptor and donor samples and 100 μL of t0 samples were injected into the UPLC apparatus.
(§3) Membrane retention was also calculated as the difference of product at t0 and after 4 h in the donor and acceptor compartments.

[2] = Isocratic hydrophobicity index φ0 by RP-HPLC; format: physicochemical; details: RP-C18
Source text: The hydrophobicity of the fluorinated analogues of PLG has then been assessed and compared to the native PLG 1 in order to investigate the specific effect imparted by the CF3 group. […] It is based on the measurement of the isocratic hydrophobicity index (φ0) which is defined as the percentage (by volume) of organic solvent required to achieve an equal distribution of compound between the polar mobile and apolar stationary phases. Thus, higher is the φ0 value, more hydrophobic is the compound. The method involves the measurement of the logarithm of retention factor k (log k) values by reversed-phase high-performance liquid chromatography (RP-HPLC) using various organic-phase concentrations in the mobile phase (in our case, the acetonitrile is used). By plotting the log k values as a function of the acetonitrile concentration, the φ0 value can be obtained from the slope and the intercept of the linear regression (φ0 = −intercept/slope). A good correlation between the φ0 and the log P values was shown.[15] The hydrophobicity index of our peptides was first measured at pH 7. […] The φ0 values were then measured at pH 2 to investigate the impact of the possible ionic form of the PLG peptides 1–3 on the hydrophobicity parameter. The lower φ0 value observed for the native PLG 1 is consistent with its expected polar ionic state (entry 1, Table 1). […] Only a slight decrease in the φ0 value is observed for the (S,S,S)-3 (entry 4, Table 1), that of the (R,S,S)-3 diastereomer remaining almost unchanged (entry 5, Table 1).
An Agilent 1200 series high-performance liquid chromatograph coupled to an ELSD detector was used. The reversed-phase HPLC measurements were carried out on a Zorbax® RX-C18 analytical column (4.6 × 250 mm, 5 μm). The mobile phase was 50 mM ammonium acetate and HPLC grade acetonitrile as organic modifier (pH 7.0) or TFA 0.1% buffer aqueous solution and 0.1% TFA HPLC grade acetonitrile (pH 2). The mobile phase flow rate was ranging from 0.1–1.0 mL min^−1. The dead time (t0) was measured by injecting sodium nitrate together with the sample at a concentration of 10 mM. The samples were dissolved at 1 mg/1 mL in water. Few drops of acetonitrile were added when the dissolution of the peptide was incomplete. The logarithm of retention factor k (log k) values were obtained according to the eqn (1):1 [drawing 1] where tR is the retention time of the compound and t0 the retention time of the unretained sodium nitrate solute.
The log k values were plotted as a function of the acetonitrile concentration. The slope (S) and the intercept (log kw) values were calculated from at least three concentrations of acetonitrile. The correlation coefficients of the linear fit were higher than 0.99. The isocratic hydrophobicity index φ0 was calculated according to the eqn (2):2 φ0 = −log kw/Swhere log kw is the log k value extrapolated to the 0% acetonitrile concentration.

[3] = PAMPA, pH 7.4
Method: as §1, §2, §3

[4] = parameters: method as in PMID 12667689; details: cited from earlier work
[5] = pH 7.4, Effective permeability class according to the empirical BBB permeation prediction, pH 7.4, classes by ref 19
[6] = pH 7.4, Pe (× 10^6), effective permeability, pH 7.4, 4 h, 5 mM, mean ± SD
[7] = pH 7, 50 mM ammonium acetate / acetonitrile

Compound | Interaction with / retention in the membrane (in words) ([1]; pH 7.4, 4 h) | Membrane retention ([1]; pH 7.4, 4 h) [%] | Transport (%) (4 h) ([1]; pH 7.4, 4 h, 5 mM, mean ± SD) | Papp [1, 5] [×10⁻⁶ cm/s] | Papp [1, 6] [×10⁻⁶ cm/s] | φ0 (isocratic hydrophobicity index) ([2]; pH 2, TFA 0.1% / acetonitrile) | φ0 (isocratic hydrophobicity index) [2, 7] | Permeability / ability to cross the membrane by passive diffusion (in words) [3] | Crossing of the blood–brain barrier (BBB) [4]
CC(C)C[C@H](NC(=O)[C@@]1(C(F)(F)F)CCCN1)C(=O)NCC(N)=O [(R,S)-2, (R)-α-CF3-Pro-L-Leu-Gly-NH2] | strong interaction with the membrane | 30 | 0.65 ± 0.06 | < 2 | 0.31 ± 0.03 | – | – | – | –
CC(C)C[C@H](NC(=O)[C@]1(C(F)(F)F)CCCN1)C(=O)NCC(N)=O [(S,S)-2] | strong interaction with the membrane | 50 | 5.34 ± 0.08 | 2 to 4 | 2.68 ± 0.04 | – | – | – | –
CC(C)C[C@H](NC(=O)[C@@H]1CCCN1)C(=O)NCC(N)=O [compound 1, L-prolyl-L-leucyl glycinamide] (H-Pro-Leu-Gly-NH2) | no peptide was retained in the membrane | – | – | – | – | 9,2 | 12,3 | very negligible | known to cross the blood–brain barrier
(2R,4S)-Ser(Ψ^CF^3,HPro)-L-Leu-Gly-NH2 [(R,S,S)-3] | – | – | – | – | – | 30,4 | 30,8 | – | –
(2S,4S)-Ser(Ψ^CF^3,HPro)-L-Leu-Gly-NH2 [(S,S,S)-3] | – | – | – | – | – | 25,3 | 27,5 | – | –
